Converted amounts (≈) assume the structure as drawn. Counter-ions that a name gives are not always drawn. Residues, ends and D or L forms follow the SMILES beside them.
Columns and labels:
Assay in all cases: microbe, parasite or virus in culture
[1] = system: Acinetobacter baumannii (ATCC19606)
Source text: (§1) Viba 11, originally discovered in Viola baoshanensis[39] and found in other plants such as Viola tricolor[40], Viola betonicifolia, and Viola philippica, lacks biological activity studies. […] All purified cyclotides underwent antibacterial testing against Gram-positive bacterium Staphylococcus aureus (CMCC(B)26003-2-10) and Bacillus subtilis (CMCC(B)63501), Gram-negative bacteria, including Acinetobacter baumannii (ATCC19606), Escherichia coli (CMCC(B)44102-2-6), and Salmonella paratyphi (CMCC(B)50094-2-9).
(§2) Bacterial fluids are cultured overnight at 37 °C. The next day, the bacterial liquids are diluted to a concentration of 10^6 CFU/ml. Prepare different concentrations of cyclotide drugs and kanamycin sulfate in advance, and sequentially add the drugs and bacterial liquid to the 96-well plate. Negative controls consisted of sterile water and bacterial liquid. The plate is cultured overnight at 37 °C and observe whether the solution remains clear to see the growth of the bacterial suspension. Each test was performed three times at least.

[2] = system: Bacillus subtilis (CMCC(B)63501)
Source text: as §1, §2

[3] = system: Escherichia coli (CMCC(B)44102-2-6)
Source text: as §1, §2

[4] = Acinetobacter baumannii ATCC19606, 10^6 CFU/ml, 96-well plate, overnight 37 °C, visual clarity, performed at least three times

MIC [2] [µM]	MIC [3] [µM]	MIC ([1]; Acinetobacter baumannii, ATCC19606) [µM]	Compound	MIC [1, 4] [µM]
			CC[C@H](C)[C@@H]1NC(=O)[C@H](Cc2ccc(O)cc2)NC(=O)[C@H](CO)NC(=O)CNC(=O)[C@H](CC(N)=O)NC(=O)[C@H](CCCCN)NC(=O)[C@H](CCCCN)NC(=O)[C@@H]2CSSC[C@@H]3NC(=O)[C@H](CCCCN)NC(=O)[C@H](CC(C)C)NC(=O)[C@H](CCCCN)NC(=O)[C@H](C(C)C)NC(=O)[C@@H]4CSSC[C@H](NC(=O)[C@H]([C@@H](C)O)NC(=O)[C@H](CSSC[C@H](NC(=O)[C@H](CO)NC1=O)C(=O)NCC(=O)N[C@@H](CCC(=O)O)C(=O)N[C@@H]([C@@H](C)O)C(=O)N4)NC(=O)CNC(=O)[C@@H]1CCCN1C(=O)[C@H]([C@@H](C)O)NC(=O)[C@H](Cc1ccc(O)cc1)NC3=O)C(=O)N[C@@H]([C@@H](C)O)C(=O)N[C@@H](Cc1c[nH]c3ccccc13)C(=O)N1CCC[C@H]1C(=O)N[C@@H](C)C(=O)N2 [vija 12] (HELM PEPTIDE1{A.C.K.K.N.G.S.Y.I.S.C.G.E.T.C.V.K.L.K.C.Y.T.P.G.C.T.C.T.W.P}$PEPTIDE1,PEPTIDE1,2:R3-20:R3|PEPTIDE1,PEPTIDE1,11:R3-25:R3|PEPTIDE1,PEPTIDE1,15:R3-27:R3|PEPTIDE1,PEPTIDE1,1:R1-30:R2$$$V2.0)	14.9 (≈ 48 µg/mL)
			CC(C)C[C@@H]1NC(=O)[C@@H]2CCCN2C(=O)[C@H](Cc2ccc(O)cc2)NC(=O)[C@H](CCCCN)NC(=O)[C@H](C)NC(=O)[C@@H]2CSSC[C@@H]3NC(=O)[C@H]([C@@H](C)O)NC(=O)[C@H](CCC(=O)O)NC(=O)CNC(=O)[C@@H]4CSSC[C@H](NC(=O)CNC(=O)[C@@H]5CCCN5C(=O)[C@H]([C@@H](C)O)NC(=O)[C@H](Cc5ccccc5)NC(=O)[C@H](CSSC[C@H](NC1=O)C(=O)N[C@@H](CO)C(=O)N[C@@H](CCCCN)C(=O)N[C@@H](CC(N)=O)C(=O)NCC(=O)N[C@@H](CO)C(=O)N[C@@H](C(C)C)C(=O)N[C@@H]([C@@H](C)O)C(=O)NCC(=O)N4)NC(=O)[C@H](CCCCN)NC(=O)[C@H](Cc1ccccc1)NC(=O)[C@H](CCCCN)NC(=O)[C@H](Cc1ccccc1)NC3=O)C(=O)N[C@@H](CCCCN)C(=O)N2 [vija 31] (HELM PEPTIDE1{A.K.Y.P.L.C.S.K.N.G.S.V.T.G.C.G.E.T.C.F.K.F.K.C.F.T.P.G.C.K.C}$PEPTIDE1,PEPTIDE1,6:R3-24:R3|PEPTIDE1,PEPTIDE1,15:R3-29:R3|PEPTIDE1,PEPTIDE1,19:R3-31:R3|PEPTIDE1,PEPTIDE1,1:R1-31:R2$$$V2.0)	14.9 (≈ 48.9 µg/mL)
4	8	8	NC[C@H]1O[C@H](O[C@H]2[C@H](O)[C@@H](O[C@H]3O[C@H](CO)[C@@H](O)[C@H](N)[C@H]3O)[C@H](N)C[C@@H]2N)[C@H](O)[C@@H](O)[C@@H]1O [Kanamycin sulfate, reference compound]	

Reference: PMC11056381, “Characterization and evaluation of cytotoxic and antimicrobial activities of cyclotides from Viola japonica” (Scientific Reports, 2024)
